The results in this text go back to ChEMBL document CHEMBL5316376, “Cyclopentathiophene Carboxamide Derivatives as PAFR Antagonists for Treating Ocular Diseases, Allergies, and Inflammation-Related Disorders” (ACS Med Chem Lett, 2023).

The target of the assay is Platelet-activating factor receptor (Homo sapiens, UniProt P25105). Kind of assay: Antagonist activity at human PAFR expressed in HEK293 cells assessed as inhibition of PAF C-16 ligand induced receptor activation preincubated for 90 mins followed by PAF ligand addition and measured after 60 mins by HTRF IP1 assay. Type of assay: functional, cell-based.
Chain of Platelet-activating factor receptor (P25105 whole entry): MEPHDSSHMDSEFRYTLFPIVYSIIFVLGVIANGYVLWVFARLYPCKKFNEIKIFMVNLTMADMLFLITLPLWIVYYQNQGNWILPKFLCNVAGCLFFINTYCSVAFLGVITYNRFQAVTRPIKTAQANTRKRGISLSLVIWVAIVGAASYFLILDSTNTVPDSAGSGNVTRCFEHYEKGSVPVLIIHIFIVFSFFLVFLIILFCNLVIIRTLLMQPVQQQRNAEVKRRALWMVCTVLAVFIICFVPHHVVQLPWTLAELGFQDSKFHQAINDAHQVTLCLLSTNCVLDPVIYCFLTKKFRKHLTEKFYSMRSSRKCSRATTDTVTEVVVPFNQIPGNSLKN
As usually defined, the IC50 is the concentration that inhibits the measured activity by half. On to `Cc1nnc2n1-c1sc3c(c1[C@@H](c1ccccc1Cl)NC2)C[C@@H](C(=O)NC1CCC(F)(F)CC1)C3`, for which the IC50 turned out to be 1.3 nM.
Take `Cc1nnc2n1-c1sc3c(c1[C@H](c1ccccc1Cl)NC2)C[C@@H](C(=O)NCc1ccccc1)C3`: the IC50 amounted to 1.1 nM.
As to `Cc1nnc2n1-c1sc3c(c1[C@@H](c1ccccc1Cl)NC2)C[C@@H](C(=O)NC1(c2ccc(Cl)cn2)CC1)C3`, the 50% inhibitory concentration (IC50) was found to be 1.3 nM.
To `Cc1nnc2n1-c1sc3c(c1[C@@H](c1ccccc1Cl)NC2)C[C@@H](C(=O)NCc1ccc(C(F)(F)F)cc1)C3` belongs 0.4 nM.
